According to PubChem BioAssay (NCI):
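Cells were grown in 96-well plates and exposed to each compound for 48 hours at five concentrations; endpoints were interpolated linearly between bracketing concentrations, or set to the highest concentration if not reached. TGI is the concentration that stops growth completely.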

Legend:
Experiment in all cases: NCI-60 cell line screen, 48 h
COLO 205 colon = tested on: COLO 205 colon
EKVX NSCLC = tested on: EKVX NSCLC
HCT-116 colon = tested on: HCT-116 colon
IGROV1 ovarian = tested on: IGROV1 ovarian
MDA-MB-435 = tested on: MDA-MB-435
NCI-H226 lung = tested on: NCI-H226 lung
NCI-H460 lung = tested on: NCI-H460 lung
NCI/ADR-RES ovarian = tested on: NCI/ADR-RES ovarian
OVCAR-5 ovarian = tested on: OVCAR-5 ovarian
PC-3 prostate = tested on: PC-3 prostate
SF-268 CNS = tested on: SF-268 CNS
SK-MEL-28 melanoma = tested on: SK-MEL-28 melanoma
SNB-19 CNS = tested on: SNB-19 CNS
SW-620 colon = tested on: SW-620 colon
TK-10 renal = tested on: TK-10 renal
UACC-257 melanoma = tested on: UACC-257 melanoma
UACC-62 melanoma = tested on: UACC-62 melanoma
OVCAR-3 ovarian = tested on: OVCAR-3 ovarian
CCRF-CEM leukemia = tested on: CCRF-CEM leukemia

| SMILES | TGI (COLO 205 colon) [µM] | TGI (EKVX NSCLC) [µM] | TGI (HCT-116 colon) [µM] | TGI (IGROV1 ovarian) [µM] | TGI (MDA-MB-435) [µM] | TGI (NCI-H226 lung) [µM] | TGI (NCI-H460 lung) [µM] | TGI (NCI/ADR-RES ovarian) [µM] | TGI (OVCAR-5 ovarian) [µM] | TGI (PC-3 prostate) [µM] | TGI (SF-268 CNS) [µM] | TGI (SK-MEL-28 melanoma) [µM] | TGI (SNB-19 CNS) [µM] | TGI (SW-620 colon) [µM] | TGI (TK-10 renal) [µM] | TGI (UACC-257 melanoma) [µM] | TGI (UACC-62 melanoma) [µM] | TGI (OVCAR-3 ovarian) [µM] | TGI (CCRF-CEM leukemia) [µM] |
| --- | --- | --- | --- | --- | --- | --- | --- | --- | --- | --- | --- | --- | --- | --- | --- | --- | --- | --- | --- |
| Nn1c(CCCCCCCCc2nnc(COc3ccc4ccccc4c3O)n2N)nnc1COc1ccc2ccccc2c1O | 35.1 | > 100 | 29.3 | 38.3 | > 100 | 79.1 | > 100 | 60.7 | 37 | > 100 | > 100 | > 100 | > 100 | > 100 | > 100 | > 100 | > 100 | – | – |
| Nc1c2ccccc2nc2ccc3c(=O)cc(-c4ccccc4)oc3c12 | 1.35 | 2.8 | 0.306 | – | 2.39 | 2.56 | 2.22 | – | 2.85 | 2.7 | – | 3.21 | – | 0.34 | 3.52 | 3.39 | – | 2.85 | – |
| O=S(CC1(O)CCCCC1)c1ccccc1 (stereo unspecified) | > 100 | > 100 | > 100 | > 100 | – | > 100 | > 100 | > 100 | > 100 | > 100 | > 100 | > 100 | > 100 | > 100 | > 100 | > 100 | > 100 | – | > 100 |
| Nc1ccc2c(=O)cc(-c3cccs3)[nH]c2n1 | 6.95 | > 100 | > 50.8 | > 100 | – | 8.62 | > 100 | 5.5 | > 100 | > 28.3 | > 100 | > 100 | > 100 | > 100 | > 100 | > 100 | > 100 | > 100 | > 44.9 |
| Nc1nc(Cl)c(/C=N\O)c(NCC2(CO)CCC2)n1 | > 100 | > 100 | > 100 | – | > 100 | > 100 | > 100 | > 100 | > 100 | > 100 | > 100 | > 100 | > 100 | > 100 | > 100 | > 100 | – | > 100 | > 100 |
| CC(NO)/C(=N/O)c1ccco1 (stereo unspecified) | > 10 | > 10 | > 10 | – | > 10 | > 10 | > 10 | > 10 | > 10 | > 10 | > 10 | – | > 10 | > 10 | > 10 | > 10 | – | > 10 | > 10 |
| Oc1c(Cl)c(Cl)c(O)c(CCNc2ccc3ncccc3c2)c1Cl | 89.2 | 36 | 41.9 | 21 | 18.8 | – | 41.8 | 33.9 | 40.4 | > 100 | 18.8 | 54.6 | 32.3 | 95.6 | 36.7 | 43.6 | 23.8 | 35 | – |
| COc1cccc(C2c3cc4c(cc3OC(N3CCOCC3)C2C)OCO4)c1OC (stereo unspecified) | 28.2 | > 100 | 15.7 | 31.2 | 33.8 | – | 30.7 | 29.7 | 43.6 | 40.6 | 92.2 | 32 | 24.2 | > 100 | > 100 | 48.8 | 85.5 | 36.7 | 28.8 |
| COc1cc(C2SCC(=O)N2c2ccc(-n3c(-c4ccccc4)nc4ccccc4c3=O)cc2)cc(OC)c1OC (stereo unspecified) | > 100 | > 100 | > 100 | > 100 | > 100 | – | > 100 | > 100 | > 100 | > 100 | > 100 | > 100 | > 100 | > 100 | > 100 | > 100 | > 100 | > 100 | > 100 |
| CC(=O)O/C=C1/C[C@H]2[C@@H]3CCC4CC(C(C)=O)CC[C@]4(C)[C@H]3CC[C@]2(C)C1=O (stereo partly specified) | – | > 100 | > 100 | > 100 | > 100 | > 100 | > 100 | – | > 100 | > 100 | > 100 | > 100 | > 100 | > 100 | > 100 | > 100 | > 100 | 97.3 | > 100 |
| COc1cc(/C=C2\N=C(c3ccccc3)N(c3nc4cc(C)c(C)cc4s3)C2=O)ccc1O | > 100 | > 100 | 61.8 | > 100 | 52.1 | – | > 100 | > 100 | > 100 | > 100 | > 100 | > 100 | > 100 | > 100 | > 100 | > 100 | > 100 | 65.3 | 39.1 |
| COc1ccc(P2(=S)Oc3ccccc3-c3ccccc3O2)cc1 | 2.77 | > 100 | > 38.7 | > 100 | – | > 100 | > 100 | > 100 | > 100 | – | > 100 | > 100 | > 100 | > 100 | > 100 | > 100 | > 100 | 0.493 | > 100 |
| Cn1c(=O)n2n(c1=O)C(S(=O)(=O)c1ccccc1)C2 (stereo unspecified) | > 100 | > 100 | > 100 | > 100 | > 100 | – | > 100 | > 100 | > 100 | > 100 | > 100 | > 100 | > 100 | > 100 | > 100 | > 100 | > 100 | > 100 | > 100 |
| CCCSc1ccc2[nH]c(/N=C/c3ccccc3)cc2c1 | 44.5 | 76.2 | 39.8 | > 100 | > 100 | – | – | 47.9 | > 100 | > 100 | 49.2 | 90.7 | – | > 100 | – | 57 | 35 | 60.3 | 64.4 |
